Laboratory results taken from patent US12345641B2, “Fluorescence quenching immunoassay” (IDEXX Laboratories, Inc., priority 2020, dated 2025).

Key:
anti-SDMA antibody = assay: Fluorescence quenching of SDMA tracers by anti-SDMA antibody or antibody-BHQ10 (Example 34); type: binding; conditions: for fluorescence quenched by adding anti-SDMA antibody: antibody not conjugated to a quencher
Experimental: Solutions of anti-SDMA antibody or anti-SDMA antibody conjugated to BHQ10 (4 eq.) in phosphate buffered saline (PBS) were prepared at concentrations of 0, 0.25, 0.5, 1, 2, 4, 8, and 16 μM (antibody solution). Solutions of an SDMA fluorescent tracer (i.e., SDMA-Fl, SDMA-DFF, or SDMA-DCF) in PBS were prepared at a concentration of 100 nM (tracer solution). 50 μL of antibody solution and 50 μL of tracer solution were combined on a 96-well UV plate and incubated for 30 min. at room temperature. […] The results are depicted in FIGS. 26 and 27.

[1] = Absorption and emission spectra of fluoresceins and SDMA conjugates (Example 33); type: physicochemical; conditions: PBS buffer
Source text: The maximum absorption of fluorescein (Fl) in PBS buffer is at 489 nm and the maximum fluorescence emission is at 515 nm. When the fluorescein molecule is conjugated with an SDMA molecule via a —CH2NH— linker (i.e., to provide SDMA-Fl), its maximum absorption and emission are shifted to 495 nm and 525 nm, respectively. When the fluorescein molecule is substituted by fluorine at the 2′ and 7′ positions (i.e., to provide DFF) there is no any change in the maximum absorption and emission compared to unsubstituted fluorescein. When the fluorescein molecule is substituted by chloride at the 2′ and 7′ positions (i.e., to provide DCF) the maximum absorption and emission are red-shifted to 500 nm and 525 nm, respectively. Also conjugating DFF or DCF to SDMA via a —CH2NH— linker (i.e., to provide SDMA-DFF and SDMA DCF, respectively) results in the maximum absorption and emission being red-shifted. The maximum absorption and emission wavelengths of fluorescein (FL), 2′,7′-difluorofluorescien (DFF), 2′,7′-dichlorofluorescien (DCF), and their conjugates with SDMA via a —CH2NH— linker (i.e., SDMA-Fl (i.e., structure A3), SDMA-DFF, and SDMA-DCF) are listed in the Table provided below. The absorption spectra of DFF, SDMA-DFF, DCF, SDMA-DCF, Fl, and SDMA-FL are depicted in FIG. 25A and the emission spectra of SDMA-DFF, SDMA-DCF, Fl, and SDMA-FL are depicted in FIG. 25B.

antibody to SDMA = assay: Fluorescence decrease of tracer A3 on complexing with anti-SDMA antibody conjugated to BHQ10 (FIG. 23); type: binding
Source text: The decrease in fluorescence of a fluorescent tracer when it forms a complex with a binding partner that is conjugated to a quencher is a function of the equivalents of quencher molecules that are conjugated to the binding partner. The more quencher molecules conjugated to the binding partner, the greater the decrease in fluorescence. This is depicted in FIG. 23 as a plot of fluorescence vs. ratio of antibody:fluorescent tracer for antibody that is conjugated to 2, 4, 6, and 8 BHQ10 quencher molecules.

[2] = tested on: anti-penicillin polyclonal antibody; assay: Fluorescence of beta lactam-fluorescein conjugates with anti-penicillin antibody (Example 25); type: binding; conditions: tracer and antibody 200 nM
Experimental: Beta lactam antibiotics conjugated to fluorescein (i.e., AMO-FITC, AMO-F, AMP-F, and CEF-F) in PBS (400 nM, 100 μL) were mixed with either anti-penicillin or anti-cefotaxime polyclonal antibody (400 nM, 100 μL, commercially available from Novus Biologicals, LLC of Centennial, CO) in the absence of and in the presence of free beta-lactam antibiotic (ampicillin (400 nM) was added to AMP-F and cefotaxime (400 nM) was added to CEF-F) in a 96 well black assay plate. […] The solutions were incubated at room temperature for 5 min and the fluorescence intensity measured.

[3] = tested on: Cy5 conjugated antibody (Ab-Cy5, anti-T4-Mab); assay: Fluorescence quenching of T4-F by Ab-Cy5 (Example 23); type: binding
Experimental: T4-F was dissolved in DMSO (1 mM) and diluted with PBS to provide a stock solution (4 μM). A series of PBS solutions of Cy5 conjugated antibody (Ab-Cy5, made as in Example 12) having Ab-Cy5 concentrations ranging from 0 to 400 nM were prepared by serial dilution. In the wells of a 96 well black assay plate was combined T4-F in PBS (5 μL) and a serially diluted Ab-Cy5 solution (95 μL) and the plate shaken for 30 min at room temperature.

[4] = tested on: anti-sulfadimethoxine monoclonal antibody; assay: Fluorescence of SDM-F or SDM-Su-F with anti-sulfadimethoxine monoclonal antibody (Example 26); type: binding
Experimental: SDM-F or SDM-Su-F in PBS (400 nM, 100 μL) was mixed with anti-sulfadimethoxine monoclonal antibody (400 nM, 100 μL, commercially available from Genway Biotech of San Diego, CA) in the absence of and the presence of sulfadimethoxine (SDM) (400 nM). The resulting solutions were incubated at room temperature for 5 min and the fluorescence intensity then measured.

anti-T4 antibody = assay: Maximum percentage fluorescence quenching of T2-F, T3-F, T4-F by anti-T4 antibody with and without quencher label (Example 27 table); type: binding
Experimental: In another experiment, tracer T2-F, T3-F, or T4-F was dissolved in DMSO to provide a DMSO solution at a tracer concentration of 1 mM. The DMSO solution was then diluted with phosphate buffered saline (“PBS”) to provide a stock solution of each tracer at a concentration of 10 μM. Monoclonal anti-T4-Mab or anti-T4-Mab conjugated to a quencher (Cy3-Ab, IRdyeQC1-Ab, Cy5-Ab, BHQ1-Ab) were serially diluted in PBS to provide solutions having an Anti-T4-Mab or anti-T4-Mab conjugated to quencher at concentration ranging from 0 to 2 μM. In a 96 well black assay plate containing the serially diluted Anti-T4-Mab or anti-T4-Mab conjugated to quencher (95 μL) was added the tracer T2-F, T3-F, or T4-F solution (5 μL), mixed well, and incubated for 30 min and the fluorescence intensities then recorded at an excitation wavelength of 485 nm and an emission wavelength of 520 nm. The results of maximum percentage fluorescence quenching for different tracers and quencher-modified antibodies are provided in the following Table: […]

anti-NT-proBNP-Mab = assay: Canine NT-proBNP peptide P1 dose response in PBS and serum (Example 52); type: binding
Experimental: A mixture of NT-proBNP P1-Fl or P1-DFF in PBS (100 nM, 25 μL) and anti-NT-proBNP-Mab in PBS (100 nM, […]) were incubated at room temperature for 30 min in the wells of a 96 well black assay plate. A series of NT-proBNP peptide P1 standard solutions in PBS or charcoal stripped serum having peptide or protein concentrations ranging from 0 to 320 nM (50 μL) were then added to the mixtures of P1-Fl or P1-DFF and anti-NT-proBNP Mab in PBS. The plate was then incubated for 30 min at room temperature and the fluorescence intensities recorded at excitation at 485 nm and emission at 520 nm. The results are shown in FIG. 49, FIG. 50, FIG. 51, and FIG. 52.

[5] = tested on: Monoclonal anti-NT-proBNP antibody (ADX-15 Mab); assay: Fluorescence quenching of canine NT-proBNP peptide-Fl/DFF conjugates by anti-NT-proBNP Mab and Ab-BHQ10 (Example 52); type: binding; conditions: No = No Quenching
Experimental: NT-proBNP peptide-fluorescein (Fl) or -difluorofluorescein (DFF) conjugates were dissolved in DMSO (0.4 mM) and diluted with PBS to provide a stock solution (100 nM). Monoclonal anti-NT-proBNP antibody (ADX-15 Mab, IDEXX Laboratories Inc. of Westbrook, ME) (6.84 mg/ml) was serially diluted in PBS buffer to provide solutions having an antibody concentration ranging from 0 to 800 nM in PBS. In a 96 well black assay plate containing the serially diluted antibody solution (50 μL) was added the P1-Fl or P1-DFF, or other peptide-Fl or Peptide-DFF solution (50 μL), mixed well, incubated for 30 min and the fluorescence intensities recorded (excitation at 485 nm and emission at 520 nm). The results are provided in FIG. 47, FIG. 48, and Table 2.

anti-NT-proBNP Mab = assay: Canine NT-proBNP full length protein dose response (Example 52); type: binding
Experimental: A mixture of NT-proBNP P1-Fl or P1-DFF in PBS (200 nM, 10 μL) and anti-NT-proBNP Mab in PBS (200 nM, 10 μL) were incubated at room temperature for 30 min in the wells of a 96 well black assay plate. A series of NT-proBNP peptide P1 standard solutions in PBS having NT-proBNP full length protein (lyophilized powder synthesized by New England Biolabs of Ipswich, MA) at concentrations ranging from 0 to 320 nM (80 μL) were then added to the mixtures of P1-Fl or P1-DFF and anti-NT-proBNP Mab in PBS. The plate was then incubated for 30 min at room temperature and the fluorescence intensities recorded at an excitation of 485 nm and an emission of 520 nm.

Molecule: C/N=C(\NC)NCCC[C@@H](N)C(=O)NCc1c(O)ccc2c(-c3ccccc3C(=O)O)c3ccc(=O)cc-3oc12 (stereo in doubt) [SDMA-Fl]
- fluorescence quenched by adding anti-SDMA antibody (anti-SDMA antibody): about 30%
- Max Absorption [1]: 495 nm
- Max Emision [1]: 525 nm
- maximum decrease in fluorescence (antibody to SDMA; antibody conjugated to 2 equivalents of BHQ10): about 50%
- maximum decrease in fluorescence (antibody to SDMA; antibody conjugated to 8 equivalents of BHQ10): about 70%

Molecule: CC1(C)SC2C(NC(=O)C(NCc3c(O)ccc4c(-c5ccccc5C(=O)O)c5ccc(=O)cc-5oc34)c3ccc(O)cc3)C(=O)N2C1C(=O)O (stereo not shown) [AMO-F, Amoxicillin-Fluorescein]
- fluorescence quenching by anti-penicillin antibody [2]: quenched

Molecule: CC1(C)SC2C(NC(=O)C(NC(=S)Nc3ccc(-c4c5ccc(=O)cc-5oc5cc(O)ccc45)c(C(=O)O)c3)c3ccc(O)cc3)C(=O)N2C1C(=O)O (stereo not shown) [AMO-FITC]
- fluorescence quenching by anti-penicillin antibody [2]: not quenched

Molecule: CC1(C)SC2C(NC(=O)C(NCc3c(O)ccc4c(-c5ccccc5C(=O)O)c5ccc(=O)cc-5oc34)c3ccccc3)C(=O)N2C1C(=O)O (stereo not shown) [AMP-F, Ampicillin-Fluorescein]
- fluorescence quenching by anti-penicillin antibody [2]: quenched

Molecule: CCN1/C(=C/C=C/C=C/C2=[N+](CCCCCC(=O)O)c3ccc(S(=O)(=O)O)cc3C2(C)C)C(C)(C)c2cc(S(=O)(=O)[O-])ccc21 [Cy5, reference compound]
- quenching of T4-F fluorescence by Cy5 alone (not conjugated to Anti-T4-Mab) [3]: did not quench fluorescence

Molecule: COc1cc(NS(=O)(=O)c2ccc(NCc3c(O)ccc4c(-c5ccccc5C(=O)O)c5ccc(=O)cc-5oc34)cc2)nc(OC)n1 [SDM-F, Sulfadimethoxine-Fluorescein]
- amount of quenching compared to SDM-Su-F [4]: greater amount of quenching
- fluorescence quenching by anti-sulfadimethoxine monoclonal antibody [4]: quenched

Molecule: COc1cc(NS(=O)(=O)c2ccc(NC(=O)CCC(=O)NCc3c(O)ccc4c(-c5ccccc5C(=O)O)c5ccc(=O)cc-5oc34)cc2)nc(OC)n1 [SDM-Su-F, Sulfadimethoxine-Succinic-Fluorescein]
- fluorescence quenching by anti-sulfadimethoxine monoclonal antibody [4]: quenched

Molecule: CNC(=NCCCC(N)C(=O)NCc1c(O)c(F)cc2c(-c3ccccc3C(=O)O)c3cc(F)c(=O)cc-3oc12)NC (stereo not shown) [SDMA-DFF]
- quenching efficiency in comparison with SDMA-Fl (anti-SDMA antibody; anti-SDMA antibody conjugated to BHQ10 (4 eq.)): slightly greater
- fluorescence quenched by adding anti-SDMA antibody (anti-SDMA antibody): about 50%
- Max Absorption [1]: 437 nm
- Max Emision [1]: 525 nm

Molecule: O=C(O)c1ccccc1-c1c2ccc(=O)cc-2oc2c(CNC(Cc3cc(I)c(Oc4cc(I)c(O)c(I)c4)c(I)c3)C(=O)O)c(O)ccc12 (stereo not shown) [T4-F]
- quenching efficiency ([3]; ratio of T4-F: Ab-Cy5 of about 1:1): about 70%
- Percentage of fluorescence quenching, BHQ1-Ab (anti-T4 antibody; anti-T4-Mab conjugated to BHQ1): No
- Percentage of fluorescence quenching, Cy5-Ab (anti-T4 antibody; anti-T4-Mab conjugated to Cy5): 31%
- Percentage of fluorescence quenching, Ab (anti-T4 antibody; anti-T4-Mab without quencher): No

Molecule: AEQLALEPLHRS [P1, canine NT-proBNP peptide]
- fluorescence intensity as a function of NT-proBNP peptide P1 concentration (anti-NT-proBNP-Mab; PBS, mixture of P1-Fl or P1-DFF with Ab or Ab-BHQ10): a dose response was observed
- dose response of P1 peptide in serum (anti-NT-proBNP-Mab; charcoal stripped serum, P1-Fl or P1-DFF): produced a dose response
- Percentage Fluorescence Quenching, DFF Conjugate, Ab-BHQ10 ([5]; NT-proBNP peptide-difluorofluorescein conjugate, mAb-BHQ10, molar ratio of 1:1): 64.7%
- Percentage Fluorescence Quenching, DFF Conjugate, Ab ([5]; NT-proBNP peptide-difluorofluorescein conjugate, molar ratio of 1:1): 63.3%
- Percentage Fluorescence Quenching, F1 Conjugate, Ab ([5]; NT-proBNP peptide-fluorescein conjugate, Ab/Conjugate molar ratio of 1:1): 39.4%
- Percentage Fluorescence Quenching, F1 Conjugate, Ab-BHQ10 ([5]; NT-proBNP peptide-fluorescein conjugate, mAb-BHQ10, molar ratio of 1:1): 40.2%

B1: full length NT-proBNP protein: canine NT-proBNP, SEQ ID NO: 14 (protein, listed as Canis familiaris)
chain: HPLGGRSPASEASEASEASGLWAVQELLGRLKDAVSELQAEQLALEPLHRSHSPAEAPEAGGTPRGVLAPHDSVLQALR
- dose response of full length NT-proBNP spiked into charcoal stripped serum (anti-NT-proBNP Mab; P1-Fl/Ab or P1-DFF/Ab): dose response was also observed
- fluorescence intensity as a function of full length NT-proBNP protein concentration (anti-NT-proBNP Mab; PBS, P1-Fl/Ab or P1-DFF/Ab at 1:1): a dose response was observed
